# From patent US20250170114A1, “METHODS OF TREATMENT USING T-TYPE CALCIUM CHANNEL MODULATORS” (Praxis Precision Medicines, Inc., priority 2022, published 2025)
# Entries after “also recorded” stand apart in the source; their conditions may differ.
# Columns and labels:
# [1] = tested on: harmaline-induced motor impairment in male SD rats; assay: Rotarod test with harmaline in SD rats; type: in vivo, rat; settings: harmaline 30 mg/kg, dose of 3 and 10 mg/kg
# Experimental: (§1) Each of six groups of male SD rats were subjected to a tremor assessment, followed by three ADL-like measures including open field test, rotarod test, and wire grip test after receiving doses of either vehicle, Formula (I), or propranolol, followed by either saline or harmaline, as outlined below in Table 22 below.
# Fifteen minutes after the open field test, the rats were subjected to a rotarod test. The speed of the rotarod increased from 10 rpms to 60 rpms within the first five minutes of the test. FIG. 9 is a bar graph showing the mean of latency to fall in the rotarod test measured in rats that were administered 30 mg/kg harmaline and also administered 10 mg/kg propranolol or 1 mg/kg, 3 mg/kg or 10 mg/kg study drug.
# [2] = tested on: harmaline-induced decrease in travelling distance in male SD rats; assay: Open field test with harmaline in SD rats; type: in vivo, rat; settings: harmaline 30 mg/kg, dose of 3 and 10 mg/kg
# Experimental: as §1
# Fifteen minutes after the tremor assessment, the rats were subjected to an open field test. FIG. 8 is a bar graph showing the traveling distance in 0-5 minutes (mm) measured in rats that were administered 30 mg/kg harmaline and also administered 10 mg/kg propranolol or 1 mg/kg, 3 mg/kg or 10 mg/kg study drug.
# [3] = tested on: harmaline-induced tremor in male SD rats; assay: Tremor assessment (tremor score 0-4) with harmaline in SD rats; type: in vivo, rat; settings: harmaline 30 mg/kg, doses of 1, 3 and 10 mg/kg, listed as compound of Formula (I)
# Excerpt: as §1, with “below. Twenty minutes after administration of harmaline or saline, the rats were subjected to a tremor assessment using the score criteria outlined in the table below.” for “below.”
# [4] = tested on: harmaline-induced hypolocomotion in male SD rats; assay: Co-dosing with propranolol in rat harmaline-induced hypolocomotion (open field, 30 min); type: in vivo; settings: harmaline 30 mg/kg, 3 mg/kg study drug alone (without propranolol), identical study
# Experimental: Two harmaline model studies using sLMA as one ADL-like end point were carried out. In each of two sLMA studies, male SD rats were grouped into five groups according to the following table. In the first study, Groups 3, 4, and 5 received 3 mg/kg of propranolol and the compound of Formula (I) (the study drug) at the doses of 1 mg/kg or 3 mg/kg. In the second study, Groups 3, 4, and 5, received 10 mg/kg of propranolol and the study drug at the doses of 1 mg/kg or 3 mg/kg.
# Rats were then subjected to an open field test for 30 minutes. Total distance travelled was measured.
# [5] = tested on: Harmaline induced tremor activity in male Sprague Dawley (SD) rats; assay: Harmaline-induced tremor activity measured with a piezoelectric plate; type: in vivo, rat; settings: harmaline 30 mg/kg i.p., 1 mg/kg p.o. alone
# Experimental: This study sought to evaluate the effects of the HCl salt of the compound of Formula (I) (the “study drug”) administered alone (1 mg/kg, p.o.) or in combination with propranolol (1 and 3 mg/kg, i.p. at 20 min prior) in Harmaline (10 or 30 mg/kg, i.p.) induced tremor activity measured with a piezoelectric plate in male Sprague Dawley (SD) rats.
# Rats were fed ad lib and kept at a 12:12 light-dark cycle throughout the study. There were N=15 in each group. Harmaline and propranolol were each formulated with saline using a volume of 5 ml/kg bodyweight. Vehicle for the study drug (1 mg/kg) was 0.5% methyl cellulose/0.1% Tween-80 in water.
# 1) Rats were allowed to acclimate in standard laboratory animal facility conditions for at least 5-7 days prior to use. 2) Rat was put in a Plexiglas chamber with a piezoelectric plate attached at the bottom to transduce tremor behavior into electronic signal. […] 3) One day prior to the first testing day, a naive rat was put in the testing chamber to confirm that the spontaneous activity baseline was within the range of 3000-10000 uv, as this sensitivity level generally allows all the tremor signal to be detected with the system. […] 11) Post-harmaline effect was measured for 20 min (10-30 min). […]
# [6] = Phase 2 trial: study drug plasma concentrations; type: in vivo, human
# Excerpt: Key safety measures included clinical laboratory evaluations, 12-lead ECG, C-SSRS, and vital signs. Key efficacy assessments included the TETRAS Performance subscale, TETRAS Upper Limb using accelerometry, CGI, and PGI-C. Blood samples were obtained for the determination of study drug plasma concentrations using a validated bioanalytical method and may also be used for method development and/or metabolite characterization. In both phases, key safety measures included clinical laboratory evaluations, 12-lead ECG, C-SSRS, and vital signs. Key efficacy assessments included the TETRAS Performance subscale, TETRAS Upper Limb using accelerometry, CGI, PGI-C, TETRAS ADL Subscale, QUEST, BDI-II, and BAI. Blood samples were obtained for the determination of study drug and metabolite plasma concentrations.
# [7] = listed as compound of Formula (I)
smiles,measurement,setting,value
CC(C)(C)NC(=O)CN1CCC(CNC(=O)c2cc(F)cc(Cl)c2)CC1.Cl [Study drug],latency to fall in rotarod test vs vehicle and harmaline only,[1]; listed as Formula (I),significantly attenuated
same,latency to fall in rotarod test vs vehicle and harmaline only,[1]; [7],significant attenuation of motor impairment
same,travelling distance in 0-5 minutes in open field vs vehicle and harmaline only,[2]; listed as Formula (I),significantly attenuated
same,travelling distance in 0-5 minutes in open field vs vehicle and harmaline only,[2]; [7],significantly attenuated decrease
same,average tremor score vs vehicle and harmaline only,[3],significantly reduced; also recorded: significant inhibition
same,harmaline-induced hypolocomotion (traveling distance in 0-30 minutes) vs harmaline and vehicle,[4],not significantly different
same,harmaline-induced tremor (tremor power in the 8-13 Hz and 6-15 Hz bands),[5],significantly reduces
same,study drug plasma concentrations,"[6]; 1-hour post-dose, all participants",Measurable
same,study drug plasma concentrations,[6]; after 56 days of daily dosing and a 14-day washout period,undetectable
same,concentration at 42 day,"[6]; human, plasma, oral, 120 mg, Part B, Day 42, steady-state",379 ng/mL
same,concentration at 56 day,"[6]; human, plasma, oral, Part B, Day 56",344 ng/mL
